This assay has as its target T1, CD73 (ecto-5′-nucleotidase) (Mus musculus, UniProt Q61503).
T1 sequence (Q61503 29-551): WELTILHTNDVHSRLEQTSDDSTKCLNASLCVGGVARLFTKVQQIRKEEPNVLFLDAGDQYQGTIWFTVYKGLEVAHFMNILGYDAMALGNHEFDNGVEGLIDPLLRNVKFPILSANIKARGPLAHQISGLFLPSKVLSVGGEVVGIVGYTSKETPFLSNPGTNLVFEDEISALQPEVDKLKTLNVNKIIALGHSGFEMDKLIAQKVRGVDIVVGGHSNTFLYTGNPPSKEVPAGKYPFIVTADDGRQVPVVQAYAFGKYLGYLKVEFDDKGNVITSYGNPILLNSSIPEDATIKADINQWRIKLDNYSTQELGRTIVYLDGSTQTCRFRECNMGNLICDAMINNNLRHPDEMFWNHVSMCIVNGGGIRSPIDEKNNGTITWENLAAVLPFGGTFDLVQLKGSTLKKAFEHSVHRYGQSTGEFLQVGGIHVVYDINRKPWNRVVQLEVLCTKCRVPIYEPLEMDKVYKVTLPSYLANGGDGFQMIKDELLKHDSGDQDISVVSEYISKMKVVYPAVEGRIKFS
As to the kind of experiment: […]5-AMP hydrolysis in B16F10 tumor homogenate, LC/MS of […]5-adenosine. The class given is biochemical.

SMILES strings stand for the structures.

For one compound, IC50 results are on record in article PMC9381133 (Molecular Cancer Therapeutics, 2022).

Take `C[C@H](Nc1cc(Cl)nc2c1cnn2[C@@H]1O[C@H](COP(=O)(O)CP(=O)(O)O)[C@@H](O)[C@H]1O)c1ccccc1F` [AB680]: half-maximal inhibition (IC50) was put at 704 pM.
